Measured values as given in US20080234331A1, “Synergistic Insecticidal Mixtures for the Treatment of Seed” (Bayer CropScience AG, priority 2005, published 2008).

Tested on: Onions cv. Vaquero
Assay: Onion yield after seed treatment with insecticidal active substances
Format: in vivo
Conditions: for Yield in % relative to the insecticide-untreated control 1: onion seed cv. Vaquero pretreated with thiram 2 g ai/kg and carbendazim 1 g ai/kg, seed treatment, total application rate 0.18 mg ai/seed (mixture 0.09 + 0.09); for growth-promoting effect with regard to the yield (in words): onion seed treatment, same total application rate
Method: Onions cv. Vaquero from the Dutch company Nunhems were pretreated uniformly with the fungicidal active substances thiram (2 g ai/kg) and carbendazim (1 g ai/kg) by customary methods. Thereafter, the seed was treated as follows, using insecticidal active substances: • 1. control, no insecticides • 2. Poncho WS 70 (clothianidin) at 0.18 mg ai/seed • 3. Gaucho WS 70 (imidacloprid) at 0.18 mg ai/seed • 4. clothianidin+imidacloprid at 0.09+0.09 mg ai/seed

O=[N+]([O-])/N=C1\NCCN1Cc1ccc(Cl)nc1 [imidacloprid]
Yield in % relative to the insecticide-untreated control 1: 109% | growth-promoting effect with regard to the yield (in words): growth-promoting effect

CN/C(=N\[N+](=O)[O-])NCc1cnc(Cl)s1 [clothianidin]
Yield in % relative to the insecticide-untreated control 1: 137% | growth-promoting effect with regard to the yield (in words): growth-promoting effect
